Data taken from patent publication US20210299144A1, “USE OF PR[…] TO REDUCE CYST FORMATION IN KIDNEY” (priority 2019, published 2021).

Tests used:
TRPM4 = molecular target: T1, TRPM4 (Mus musculus, UniProt Q7TN37); test: TRPM4 current in cilia of TRPM3-knockout mIMCD-3 cells; format: biochemical, murine; conditions: 2 mM cytoplasmic MgATP, cilia lacking TRPM3
T1 construct: endogenous in cells; host or cells: mIMCD-3 cell line with TRPM3 knocked out by CRISPR/Cas9; excised primary cilia
Source text: The large-conductance ciliary channel is not detectable unless TRPP2 is expressed. Given the pharmacological similarities between the ciliary TRPP2-dependent channel and TRPM3, we investigated whether the ciliary channel also requires expression of TRPM3. We used an mIMCD-3 cell line in which TRPM3 was knocked out by CRISPR/Cas9 genome editing. In electrical recordings from the primary cilia of cells lacking TRPM3, the large-conductance channel was never seen (n=45, Table 1, TRPM3 KO). […] Knocking out TRPM3 had no effect on the activity of another ciliary channel, TRPM4. In 17 cilia tested from TRPM3-knockout cells, 1 mM cytoplasmic Ca^2+ on average activated a current at +100 mV of 47±7 pA. […] As in cilia of wild-type cells, 2 mM cytoplasmic MgATP blocked the TRPM4 current. […]
All recordings were done under voltage clamp at room temperature (24° C.). […] Total mean channel current was measured as the mean current minus the current attributed to leak channels. The latter was determined from an amplitude histogram. […] Channel open probabilities were determined from amplitude histograms and are reported only when the number of channels in the membrane was unambiguous. The presence or absence of active TRPP2 channels was assessed with the cilium or patch exposed to 3 μM cytoplasmic Ca^2+ and the voltage clamped to +40 mV. […]

[1] = molecular target: T2, ciliary TRPP2-dependent channel (Mus musculus, UniProt J9SQF3); test: Electrical recording of the large-conductance channel in single excised primary cilia of mIMCD-3 cells; format: biochemical, murine; parameters: mean single-channel conductance (slope) / extrapolated reversal potential (x-intercept): dose or concentration left out as unconfirmed; conditions: for increase of mean channel current (factor): +60 mV
T2 construct: Electrical recordings were made from primary cilia of mIMCD-3 cells; host or cells: mIMCD-3 cells, excised primary cilia (inside-out) or apical membrane patches
T2 sequence (J9SQF3 whole entry): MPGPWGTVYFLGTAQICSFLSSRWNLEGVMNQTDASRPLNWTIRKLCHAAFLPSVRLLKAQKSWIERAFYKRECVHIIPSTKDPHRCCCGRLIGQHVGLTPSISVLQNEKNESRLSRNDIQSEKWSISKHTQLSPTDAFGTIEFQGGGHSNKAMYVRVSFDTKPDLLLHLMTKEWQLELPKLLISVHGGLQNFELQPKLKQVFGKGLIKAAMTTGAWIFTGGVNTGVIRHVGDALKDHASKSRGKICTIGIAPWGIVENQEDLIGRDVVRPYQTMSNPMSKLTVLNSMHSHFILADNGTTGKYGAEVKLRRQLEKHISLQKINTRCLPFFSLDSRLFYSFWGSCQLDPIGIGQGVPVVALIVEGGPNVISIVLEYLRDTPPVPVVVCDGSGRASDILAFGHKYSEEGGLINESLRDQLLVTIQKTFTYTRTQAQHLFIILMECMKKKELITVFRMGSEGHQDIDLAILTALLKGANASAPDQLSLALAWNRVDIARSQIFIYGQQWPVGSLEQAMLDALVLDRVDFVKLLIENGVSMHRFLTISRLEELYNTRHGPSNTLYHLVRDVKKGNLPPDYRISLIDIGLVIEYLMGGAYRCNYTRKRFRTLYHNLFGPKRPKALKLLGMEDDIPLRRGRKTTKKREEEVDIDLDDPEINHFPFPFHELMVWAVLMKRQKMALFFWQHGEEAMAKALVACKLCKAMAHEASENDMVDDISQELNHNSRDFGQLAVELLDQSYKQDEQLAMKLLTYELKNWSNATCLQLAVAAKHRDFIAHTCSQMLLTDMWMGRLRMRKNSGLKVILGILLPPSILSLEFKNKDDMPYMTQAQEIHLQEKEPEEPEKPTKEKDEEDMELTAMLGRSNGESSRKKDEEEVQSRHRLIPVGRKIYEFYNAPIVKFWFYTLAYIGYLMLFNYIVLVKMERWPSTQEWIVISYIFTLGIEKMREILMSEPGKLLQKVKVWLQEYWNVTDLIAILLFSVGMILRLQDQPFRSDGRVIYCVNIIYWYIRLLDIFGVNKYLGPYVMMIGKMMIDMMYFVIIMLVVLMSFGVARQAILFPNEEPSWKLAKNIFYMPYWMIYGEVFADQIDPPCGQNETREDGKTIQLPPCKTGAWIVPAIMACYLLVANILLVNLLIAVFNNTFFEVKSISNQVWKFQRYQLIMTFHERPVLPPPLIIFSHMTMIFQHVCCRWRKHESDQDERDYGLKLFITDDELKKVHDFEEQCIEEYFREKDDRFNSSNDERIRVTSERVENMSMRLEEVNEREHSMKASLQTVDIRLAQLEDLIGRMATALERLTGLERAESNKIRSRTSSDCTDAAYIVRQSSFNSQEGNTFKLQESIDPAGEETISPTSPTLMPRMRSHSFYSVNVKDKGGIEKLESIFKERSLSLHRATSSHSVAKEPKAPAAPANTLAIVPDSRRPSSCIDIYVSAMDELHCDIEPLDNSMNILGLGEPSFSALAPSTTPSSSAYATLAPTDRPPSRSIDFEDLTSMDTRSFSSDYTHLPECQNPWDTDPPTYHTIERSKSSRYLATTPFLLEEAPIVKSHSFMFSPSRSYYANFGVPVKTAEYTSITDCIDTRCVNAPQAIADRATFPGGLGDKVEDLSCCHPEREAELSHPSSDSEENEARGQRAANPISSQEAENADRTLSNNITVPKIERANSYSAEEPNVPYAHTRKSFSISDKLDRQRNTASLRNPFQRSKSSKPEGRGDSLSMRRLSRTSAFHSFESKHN
Experimental: (§1) Electrical recordings were made from primary cilia of mIMCD-3 cells. mIMCD-3 cells (murine epithelial cells from the renal inner medullary collecting duct, (CRL-2123, American Type Culture Collection, Manassas, Va., USA) were cultured on beads that were free to move in the recording chamber. Suction was applied to a recording pipette so that a single primary cilium entered the pipette. If a resistance of at least 1 GΩ formed between the membrane and the pipette, the cilium was excised from the cell. This left the cilium inside the recording pipette in the inside-out configuration. The pipette containing the cilium could then be transferred among different solutions that bathed the cytoplasmic face of the membrane. In one set of experiments (FIGS. 1 and 2), the external solution was replaced by perfusing the pipette (FIG. 14).
During recording, the beads coated with cells were stored in a standard external solution containing (in mM) NaCl 140, KCl 5, CaCl2 2, MgCl2 2, sodium pyruvate 2, HEPES 5, and D-glucose 9.4, adjusted to pH 7.4 with NaOH. The recording pipettes also contained this solution except as noted. […] The standard cytoplasmic solution contained (in mM) KCl 140, NaCl 5, CaCl2 0.7, MgCl2 2, HEPES 5, BAPTA 2, and D-glucose 5, adjusted to pH 7.4 with KOH. This solution contained 0.1 μM free Ca^2+. To make a cytoplasmic solution with 3 μM free Ca^2+, BAPTA was replaced with dibromoBAPTA, and the total CaCl2 was increased to 1.4 mM. In buffered solutions, concentrations of free Ca^2+ were estimated by the method of Bers (see Bers D M: “A simple method for the accurate determination of free [Ca] in Ca-EGTA solutions” Am J Physiol Cell Physiol. 1982; 242: C404-C408), which is herein incorporated by reference in its entirety.
All recordings were done under voltage clamp at room temperature (24° C.). Equipment, software, and technical details, including corrections for liquid junction potentials, were conducted as described in the article: Kleene S J, Kleene N K. “The native TRPP2-dependent channel of murine renal primary cilia” Am J Physiol Renal Physiol. 2017; 312: F96-F108, which is herein incorporated by reference in its entirety. During acquisition, currents were low-pass filtered at 2 kHz and digitized at 5 kHz. Total mean channel current was measured as the mean current minus the current attributed to leak channels. The latter was determined from an amplitude histogram. […] Channel open probabilities were determined from amplitude histograms and are reported only when the number of channels in the membrane was unambiguous. The presence or absence of active TRPP2 channels was assessed with the cilium or patch exposed to 3 μM cytoplasmic Ca^2+ and the voltage clamped to +40 mV. If no large-conductance channels were seen to open within 2 min, active TRPP2 channels were judged to be absent.

mIMCD-3 cells = test: Measuring intracellular calcium (Fura2-AM, F340/F380) in mIMCD-3 cells; format: cell-based, murine; conditions: 200 μM pregnenolone sulfate in 0.4% DMSO
Experimental: Wild-type (WT) mIMCD-3 cells and a clone of mIMCD-3 cells that lacked TRPP2 (TRPP2 KO) were grown to confluence in a 96-well plate and loaded with Fura2-AM, a ratiometric Ca^2+ indicator dye. The ratio of the fluorescence (after background subtraction) at 340 nm and 380 nm (F340/F380) correlates with the cytoplasmic Ca^2+ concentration. […] Unlike in the electrophysiological ciliary recordings, here the apical surface of the cell, including the cilium, is exposed to the pregnenolone sulfate. […] Responses from individual wells are shown as black circles. The experiment was done with two different passages for each cell line for a total of 19 wells per condition.
Wild-type mIMCD-3 cells and one mIMCD-3 clone with TRPP2 knocked out were grown to confluence in a 96-well plate. Standard external solution with 1 mM probenecid was used for all solutions. […] The ratio of the fluorescence (after background subtraction) at 340 nm and 380 nm (F340/F380) indicates the cytoplasmic Ca^2+ concentration and was measured on a BioTek Synergy 4 plate reader. Background fluorescence (wells with cells, 0.01% pluronic acid, and 0.1% DMSO in standard external solution, but no dye) was subtracted from the F340 and F380 readings. […]

TRPP2-dependent channels = molecular target: T3, TRPP2-dependent channels (Mus musculus, UniProt J9SQF3); test: Incidences of TRPP2-dependent channels in apical and ciliary membranes; format: biochemical, murine; conditions: for incidence of TRPP2-dependent channels: PS 75 or 230 μM external, 3 μM cytoplasmic Ca2+, +40 mV
T3 construct: Electrical recordings were made from primary cilia of mIMCD-3 cells; host or cells: mIMCD-3 cells, excised primary cilia (inside-out) or apical membrane patches
T3 sequence (J9SQF3 whole entry): as above
Experimental: In Table 1, the presence or absence of active TRPP2 channels was assessed with the cilium or apical membrane patch exposed to 3 μM cytoplasmic Ca^2+ and the voltage clamped to +40 mV. If no large-conductance channels were seen to open within 2 min, active TRPP2 channels were judged to be absent. […] PS, pregnenolone sulfate; KO, knockout; ND, not determined.
as §1
All recordings were done under voltage clamp at room temperature (24° C.). Equipment, software, and technical details, including corrections for liquid junction potentials, were conducted as described in the article: Kleene S J, Kleene N K. “The native TRPP2-dependent channel of murine renal primary cilia” Am J Physiol Renal Physiol. 2017; 312: F96-F108, which is herein incorporated by reference in its entirety. During acquisition, currents were low-pass filtered at 2 kHz and digitized at 5 kHz. Total mean channel current was measured as the mean current minus the current attributed to leak channels. The latter was determined from an amplitude histogram. In each cilium reported, the number of large-conductance channels was between 1 and 5. Channel open probabilities were determined from amplitude histograms and are reported only when the number of channels in the membrane was unambiguous. The presence or absence of active TRPP2 channels was assessed with the cilium or patch exposed to 3 μM cytoplasmic Ca^2+ and the voltage clamped to +40 mV. If no large-conductance channels were seen to open within 2 min, active TRPP2 channels were judged to be absent. These cilia have a second Ca^2+-activated channel, TRPM4, but it is not activated by the concentrations of cytoplasmic Ca^2+ used in this study ([…] The half-maximal effect of Ca^2+ on ciliary TRPM4 occurs at 646 μM at +100 mV and 1166 μM at −100 mV.

T1 sequence (Q7TN37 whole entry): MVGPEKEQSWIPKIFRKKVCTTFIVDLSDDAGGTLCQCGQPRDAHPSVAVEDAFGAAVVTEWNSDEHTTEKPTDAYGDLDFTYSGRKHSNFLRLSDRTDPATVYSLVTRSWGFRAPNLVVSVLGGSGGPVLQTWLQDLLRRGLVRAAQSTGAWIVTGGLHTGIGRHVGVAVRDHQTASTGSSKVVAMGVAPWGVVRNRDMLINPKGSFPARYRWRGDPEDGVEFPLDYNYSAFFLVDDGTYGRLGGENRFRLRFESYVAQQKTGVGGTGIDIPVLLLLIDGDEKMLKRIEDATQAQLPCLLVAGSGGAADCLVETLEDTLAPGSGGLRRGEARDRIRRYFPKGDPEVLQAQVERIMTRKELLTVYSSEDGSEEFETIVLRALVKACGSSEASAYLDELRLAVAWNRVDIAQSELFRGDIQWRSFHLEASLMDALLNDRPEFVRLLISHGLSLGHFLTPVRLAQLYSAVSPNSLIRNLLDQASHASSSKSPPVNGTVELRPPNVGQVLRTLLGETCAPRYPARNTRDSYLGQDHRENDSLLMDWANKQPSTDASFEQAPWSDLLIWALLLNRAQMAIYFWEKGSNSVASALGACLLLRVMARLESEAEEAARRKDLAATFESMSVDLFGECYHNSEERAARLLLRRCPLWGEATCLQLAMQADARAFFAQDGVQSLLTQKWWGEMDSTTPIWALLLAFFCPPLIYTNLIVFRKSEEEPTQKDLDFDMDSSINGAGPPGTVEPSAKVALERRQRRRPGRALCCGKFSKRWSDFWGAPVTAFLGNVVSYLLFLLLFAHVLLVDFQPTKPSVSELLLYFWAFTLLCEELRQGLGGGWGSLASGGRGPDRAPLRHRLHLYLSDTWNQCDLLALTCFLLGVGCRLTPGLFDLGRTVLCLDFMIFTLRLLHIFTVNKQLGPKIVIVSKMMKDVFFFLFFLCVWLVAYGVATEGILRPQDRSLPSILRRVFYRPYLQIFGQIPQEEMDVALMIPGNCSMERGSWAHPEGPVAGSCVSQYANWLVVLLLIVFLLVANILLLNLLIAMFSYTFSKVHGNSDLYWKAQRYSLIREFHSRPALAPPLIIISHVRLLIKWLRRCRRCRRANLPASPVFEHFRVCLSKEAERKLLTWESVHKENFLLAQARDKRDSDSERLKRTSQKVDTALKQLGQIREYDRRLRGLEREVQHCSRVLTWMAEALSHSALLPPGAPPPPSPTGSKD

**Q.** `Nc1ncnc2c1ncn2[C@@H]1O[C@H](COP(=O)(O)OP(=O)([O-])OP(=O)([O-])O)[C@@H](O)[C@H]1O.[Mg+2]` [MgATP] was tested. Which “fraction of TRPM4 current remaining after addition of MgATP” value (TRPM4) did it give?
**A.** The value was 0.34±0.03.

**Q.** Pregnenolone sulfate was tested. Which “k (Boltzmann slope factor)” value ([1]; 1 μM external PS, 3 μM cytoplasmic Ca2+) did it give?
**A.** The value was 13.5 ± 1.0 mV.

**Q.** What about the “V1/2 (potential at which open probability is 0.5)” value ([1]; 1 μM external PS, 3 μM cytoplasmic Ca2+, Vm −40 to +60 mV) of the same compound?
**A.** The value was −5.6 ± 1.1 mV.

**Q.** And the “channel activation at 230 μM compared with 75 μM” value ([1]; 3 μM cytoplasmic Ca2+, FIG. 7)?
**A.** Its value is “no more effective”.

**Q.** And the “k (Boltzmann slope factor)” value ([1]; 10 μM external PS, 3 μM cytoplasmic Ca2+)?
**A.** The value was 18.3 ± 1.5 mV.

**Q.** And the “V1/2 (potential at which open probability is 0.5)” value ([1]; 10 μM external PS, 3 μM cytoplasmic Ca2+, Vm −40 to +50 mV)?
**A.** Its value is −21.4 ± 1.4 mV.

**Q.** What about the “k (Boltzmann slope factor)” value ([1]; 75 μM external PS, KCl-based external solution, 3 μM cytoplasmic Ca2+) of the same compound?
**A.** Its value is 14.8 ± 0.9 mV.

**Q.** What about the “V1/2 (potential at which open probability is 0.5)” value ([1]; 75 μM external PS, KCl-based external solution, 3 μM cytoplasmic Ca2+, Vm −140 to −20 mV) of the same compound?
**A.** Its value is −67.2 ± 1.0 mV.

**Q.** And the “increase of mean channel current (factor)” value ([1]; […] μM cytoplasmic pregnenolone sulfate, 0.1 μM cytoplasmic Ca2+)?
**A.** The value was 3.6±0.7.

**Q.** What about the “increase of mean channel current (factor)” value ([1]; […] μM external (pipette) pregnenolone sulfate, 0.1 μM cytoplasmic free Ca2+) of the same compound?
**A.** The value was 30±12.

**Q.** And the “extrapolated reversal potential (x-intercept)” value ([1]; […] μM external pregnenolone sulfate, standard external solution)?
**A.** The value was −67±2 mV.

**Q.** And the “mean single-channel conductance (slope)” value ([1]; […] μM external pregnenolone sulfate, standard external solution, fit −40 to +50 mV)?
**A.** Its value is 92±3 pS.

**Q.** What about the “fraction of the mean channel current remaining after replacing external solution with one lacking pregnenolone sulfate” value ([1]; after 75 μM external pregnenolone sulfate, −10 mV, free Ca2+ 3) of the same compound?
**A.** Its value is 0.14±0.08.

**Q.** And the “channel activity (open probability)” value ([1]; external pregnenolone sulfate up to 75 μM, 0.1 μM cytoplasmic Ca2+, FIG. 5)?
**A.** Its value is “significantly increased the channel activity”.

**Q.** What about the “cytoplasmic Ca2+ response (Post Stim. F340/F380 − Pre Stim. F340/F380)” value (mIMCD-3 cells; TRPP2 KO mIMCD-3 cells, compared with wild-type) of the same compound?
**A.** The value was “smaller response”.

**Q.** What about the “cytoplasmic Ca2+ response (Post Stim. F340/F380 − Pre Stim. F340/F380)” value (mIMCD-3 cells; wild-type mIMCD-3 cells) of the same compound?
**A.** Its value is “increased cytoplasmic Ca^2+”.

**Q.** And the “incidence of TRPP2-dependent channels” value (TRPP2-dependent channels; apical membrane, TRPM3 KO)?
**A.** Its value is 0/34.

**Q.** What about the “incidence of TRPP2-dependent channels” value (TRPP2-dependent channels; apical membrane, TRPP2 KO) of the same compound?
**A.** The value was 0/30.

**Q.** And the “incidence of TRPP2-dependent channels” value (TRPP2-dependent channels; apical membrane, wild type)?
**A.** Its value is 3/57.

**Q.** What about the “incidence of TRPP2-dependent channels” value (TRPP2-dependent channels; ciliary membrane, TRPP2 KO) of the same compound?
**A.** The value was 0/28.

**Q.** What about the “incidence of TRPP2-dependent channels” value (TRPP2-dependent channels; ciliary membrane, wild type) of the same compound?
**A.** Its value is 77/259.

**Q.** And the “cilia in which channels were observed” value (TRPP2-dependent channels; wild type cilia exposed to pregnenolone sulfate)?
**A.** The value was 30%.
